Experiments:
α-Syn aggregated neurons = assay: Staining of primary cultured neurons infected with AAV α-Syn and treated with α-Syn PFFs, fluorescence microscopy; type: cell-based, Sprague-Dawley rats; settings: compounds 0.1 mM; Fig. 1
Procedure: Primary cultured neurons were infected with adeno-associated virus (AAV) encoding a-Syn for 7 days and then treated with a-Syn PFFs. The candidate compounds were added to the primary neurons with the indicated aggregates and analyzed using fluorescence microscopy.
Primary hippocampal neurons were isolated from […] pregnant rats. The Sprague-Dawley rats were used at embryonic E18 days. The cortical tissue was isolated, dissociated, and incubated with 5 ml of D-Hanks containing 0.25% trypsin for 5 min at 37 °C in a humidified atmosphere of 5% CO2, centrifuged at 1000 x g for 5 min after addition of 4 ml of the neuronal plating medium containing DMEM/F12 with 10% fetal bovine serum. The 1 × 10^5 cells were plated in 6-well plates for further process. DIV7 neurons were infected with AAV α-Syn FL virus and at DIV12, the neurons were transduced with 100 ng/ml α-Syn PFF, α-Syn 1-140 were incubated with the cultured primary neurons in sterile PBS to a final concentration of 0.1 mg/ml. Sonicated PFFs, or an equivalent volume of the monomer as a control, were transferred into pre-warmed neuronal medium at a final concentration of 100 ng/ml. The samples were immune-stained with anti-p-α-Syn S129 (Abcam; Catalog No.: ab59264) (pseudo-colors were converted to red) to detect a-Syn aggregates and then stained with ThT (Sigma; Catalog No.: S96200) or compounds (0.1 mM).

Aβ aggregates [1] = assay: Fluorescence binding assay with protein aggregates (fluorescence spectrophotometer); settings: Kd for Aβ to Kd for α-Synuclein
Procedure: (§1) First, the compound was a final concentration of 5 µM by dissolved in 50 mM Tris-buffer (pH 7.0) with 0.0025% (v/v) DMSO. Then, Aβ, α-Synuclein, and Tau aggregates were added, with their final concentrations being 0.02, 0.04, 0.08, 0.16, 0.32, 0.64, and 1.28 µM, respectively. Subsequently, the fluorescence measurements were detected using a fluorescence spectrophotometer (Horiba, Fluorolog3).
(§2) Aβ PFF: Aβ (1-42) peptide (rPeptide; catalog No.: A-1163-1) was resolved in 9 volumes of ice-cold distilled water and vortexed occasionally. After 30 min, one volume of 10X fibril-forming buffer (0.2 M NaPi, 1.5 M NaCl, 0.2% NaN3, pH 7.5) was added. The final concentration of peptide was 1 mg/ml. The solution was incubated at 37 °C for one week.
(§3) Tau aggregates: The cDNA sequence of Tau was inserted into a plasmid carrying a GST tag, which was then transfected into BL21 bacteria for protein expression. Bacterial pellets were resuspended in high-salt buffer (0.75 M NaCl, 50 mM Tris, pH 7.4, 1 mM EDTA), sonicated, and centrifuged at 70,000 x g for 30 min. The supernatants were applied onto a Glutathione sepharose beads column (GE Healthcare) and purified by GST tag. Thrombin was used to remove the GST tag. The protein was dialyzed with FPLC buffer (50 mM NaCl, 50 mM Tris- HCl pH 7.4). The protein was filtered through a 0.22 µm syringe filter. The concentration of Tau was adjusted to 3 mg/mL, 12.5 µM heparin was added, and the mixture was shaken at 37 °C and 300 rpm for 7 days to prepare Tau aggregates. • Incubation Concentrations: 0.02, 0.04, 0.08, 0.16, 0.32, 0.64, and 1.28 µM; • Incubation Temperature: 37°C; • Incubation Duration: 5 min; • Detection Wavelengths: [formula]
(§4) Statistical analysis was performed using GraphPad Prism® version 8.2.1.

Aβ aggregates [2] = target: T1, Aβ aggregates (Homo sapiens, UniProt P05067); assay: as above; settings: Aβ aggregates; compound 5 µM, 37°C, 5 min
T1 construct: Aβ (1-42) peptide (rPeptide; catalog No.: A-1163-1); purchased rPeptide A-1163-1
T1 sequence (P05067 672-713): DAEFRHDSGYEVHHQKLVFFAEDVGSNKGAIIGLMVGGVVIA
Procedure: as §1, §2, §3, §4

Aβ plaques = assay: Ex vivo staining of human AD patient brain sections; type: binding; settings: AD brains; Fig. 3
Procedure: (§5) The ex vivo screening was extended into human DLB, and AD patient samples. Neurodegenerative diseases of DLB belong to synucleino-pathies with well-defined Lewy bodies. Therefore, the positive compounds should show robust signals with LBs and LNs.
(§6) For immunohistochemical staining, deparaffinized and antigen-retrieved 20 µm-thick human brain sections were treated with 0.3% H2O2 at room temperature for 10 min. Subsequently, the sections were washed in PBS with 0.3% Triton X-100 3 times and then blocked with 1% BSA for 30 min, followed by overnight incubation with anti-Aβ/AT8/α-Syn pS129 antibody at 4 °C. The signal was developed using a Histostain-SP kit (Invitrogen, Catalog No.: 95-9943). After washing, the sections were covered with a glass cover using mounting solution.

AT8-positive NFTs = assay: as above; type: binding; settings: AD brains; Fig. 3
Procedure: as §5, §6

[3] = In vivo PK profiling, plasma and brain exposure; set-up: species or system male CD-1 (ICR) mice; settings: 5 mg/kg via tail vein injection; for Kp at 1 min: at 1 minute, read-out: brain/plasma ratio; for half-life: plasma
Procedure: To test whether these compounds are brain permeable in vivo, in vivo PK profiling was conducted to determain brain exposure.
An in vivo PK study was performed in male CD-1 (ICR) mice. Weighed a known amount of test compound and dissolved in vehicle (5% NMP + 15% Solutol + 80% PBS) to make a formulation (1 mg/mL). Then administered 5 mg/kg compound via tail vein injection into mice. The experiment included five groups (sampling time points), each group consisting of three male CD-1 (ICR) mice (body weight range: 29.1-30.6 g). At designated time points (0, 1, 5, 15, and 30 minutes post-injection), serial venous blood samples (approximately 30 µL each) and brain tissue samples were harvested from each animal. Blood samples were collected into Vacutainer IM tubes containing EDTA-K2 anticoagulant, inverted several times, and immediately placed on wet ice pending plasma centrifugation. For brain tissue samples, PBS (100 mM, pH 7.4) at […] the weight of the tissue (1:4, w/v) was added for homogenization. The concentrations of the test compound in plasma and brain tissue homogenates were measured by the LC/MS/MS analysis, with the specific operations as follows: Aliquots of 10 µL plasma sample or 50 µL brain homogenate sample was transferred to a 96-well plate, mixed with 200 µL protein precipitation solvent (methanol/acetonitrile, 1:1 v/v, containing 5 ng/mL Terfenadine). After protein precipitation, the supernatant was collected and diluted 3-fold with methanol/water (1:1, v/v, containing 0.1% FA). 1 µL of plasma samples or 3 µL of brain tissue homogenate samples was taken for LC/MS/MS analysis.

[4] = male, CD-1 (ICR), mouse, brain/plasma, intravenous
[5] = male, CD-1 (ICR), mouse, brain/plasma, intravenous, read-out: brain/plasma ratio, maximum
[6] = male, CD-1 (ICR), mouse, intravenous

SMILES	signals in α-Syn aggregated neurons (α-Syn aggregated neurons)	Ratio / α-Synuclein (Aβ aggregates [1])	Kd (Aβ aggregates [2])	staining of Aβ plaques (Aβ plaques)	staining of AT8-positive NFTs (AT8-positive NFTs)	plasma half-life extension compared to F0502B [3]	Kp at 1 min [3, 4]	Kp at 15 min [3, 5]	half-life [3, 6]	Kp at 30 min ([3]; male, CD-1 (ICR), mouse, brain/plasma, intravenous, at 30 minutes, read-out: brain/plasma ratio, maximum)
Cc1cc2nc(/C=C/c3ccc(O)c(N)c3)sc2cc1N(C)CCOCCF [Compound C, (E)-2-amino-4-(2-(6-((2-(2-fluoroethoxy)ethyl)(methyl)amino)-5-methylbenzo[d]thiazol-2-yl)vinyl)phenol]	selectively yielded positive signals	4.80	1.51 µM	did not stain	did not stain	10 fold	0.24	1.29	68.4 min	
COc1c(/C=C/c2nc3cc(C)c(N(C)CCOCCF)cc3s2)ccc(O)c1Br [Compound E, (E)-2-bromo-4-(2-(6-((2-(2-fluoroethoxy)ethyl)(methyl)amino)-5-methylbenzo[d]thiazol-2-yl)vinyl)-3-methoxyphenol]	selectively yielded positive signals	5.59	0.0872 µM	did not stain	did not stain		0.12	3.37		
CCN(CCOCCF)c1cc2sc(/C=C/c3ccc(O)c(Br)c3)nc2cc1C [Compound R, (E)-2-bromo-4-(2-(6-(ethyl(2-(2-fluoroethoxy)ethyl)amino)-5-methylbenzo[d]thiazol-2-yl)vinyl)phenol]	selectively yielded positive signals	15.74	1.27 µM	did not stain	did not stain	4.7 fold	0.05		32.4 min	2.55

— EP4733299A1, “SULFUR-CONTAINING FUSED RING COMPOUND, PHARMACEUTICAL COMPOSITION CONTAINING SAME, AND PREPARATION METHOD THEREFOR AND USE THEREOF” (Shenzhen Braegen Pharmaceutical Co., Ltd., priority 2023, dated 2024)
